The record followed here is patent publication US20220162206A1, “NOVEL AZAINDOLE DERIVATIVE” (KOWA COMPANY, LTD., priority 2019, published 2022).

The IC50 is the concentration that inhibits the measured activity by half.

For one experiment, the target named is T1, CSF-1R (Fms, active) (Homo sapiens, UniProt P07333).
T1 construct: purchased Eurofins DiscoverX Products, LLC 14-551
The experiment is described as follows: Evaluation of CSF-1R inhibitory activity by TR-FRET method (HTRF KinEASE-TK kit). It counts as biochemical. The following applies: for IC50: TR-FRET method, phosphorylation of substrate peptide, enzyme 0.05 μg/mL; for inhibitory activities against CSF-1R (in words): statement referring to the Test Examples. As for the experimental part: The CSF-1R inhibitory activity of an inventive compound was evaluated by a TR-FRET method using phosphorylation of a substrate peptide of CSF-1R as the index.
The inventive compound was dissolved in dimethyl sulfoxide sterilized by filtration to prepare a 10 μmol/L solution. This solution was dispensed using an acoustic noncontact type nanoliter dispenser (Echo 550, LABCYTE Inc.) such that the final concentrations were within a range from 0.25 to 180 nmol/L.
The assay was performed using an HTRF™ KinEASE™-TK kit (Cisbio Bioassays, 62TK0PEC) by the procedure in accordance with the manual (62TK0PEC rev04(2009)). In the assay, a 384-well plate (Greiner 784076 Black 384 well, Small volume, Greiner Bio-One International GmbH) was used. The enzyme was Fms, active (14-551, Eurofins DiscoverX Products, LLC), which was prepared such that the final concentration was 0.05 μg/mL. TR-FRET measurement (fluorescence of 620 nm and 665 nm) was performed using an HTRF-dedicated microplate reader (K-101, Kyoritsu Radio Service Co., Ltd.). The proportion of the fluorescence quantity at each wavelength as the index of phosphorylation [((quantity of 665 nm fluorescence)/(quantity of 620 nm fluorescence))×10,000] was calculated, and the IC50 value was determined by statistical treatment of the proportion of the fluorescence quantity at each compound concentration.

The test system of experiment [1] is human non-small cell lung cancer cell line NCI-H460. The experiment is described as follows: Antitumor effect in human non-small cell lung cancer cell line NCI-H460 subcutaneously transplanted nude mouse model. Type of experiment: in vivo, BALB/c-nu/nu mouse. The following applies: 300 mg/kg by gavage. As for the experimental part: The antitumor effect of the inventive compound was examined using a human non-small cell lung cancer cell line NCI-H460 subcutaneously transplanted nude mouse model.
A cell culture medium was prepared by adding 5.6 mL of Penicillin-Streptomycin (Sigma-Aldrich Co. LLC), 56 mL of FBS (MP Biomedicals), 5.6 mL of 1 mol/L HEPES (Sigma-Aldrich Co. LLC), 5.6 mL of 100 mmol/L Sodium Pyruvate (Life Technologies), and 1.4 g of D-(+)-Glucose (Wako Pure Chemical Industries, Ltd.) to a RPMI1640 culture medium (Sigma-Aldrich Co. LLC). NCI-H460 cells (American Type Culture Collection) were cultured using the prepared culture medium at 37° C. in a 5% CO2 incubator.
The cultured NCI-H460 cells were suspended in PBS. […]
From the day of grouping, the administration solutions were administered by gavage to mice transplanted with cancer cells (15 mice in each group) for the total of 22 days, once a day on the day of the grouping and the last day and twice a day on other days. […] The administration volume was calculated from the last body weight of each.
The tumor volume of each mouse was calculated by the following equation, and the antitumor effect was evaluated using the tumor volume as the index. […]

T1 sequence (P07333 20-972): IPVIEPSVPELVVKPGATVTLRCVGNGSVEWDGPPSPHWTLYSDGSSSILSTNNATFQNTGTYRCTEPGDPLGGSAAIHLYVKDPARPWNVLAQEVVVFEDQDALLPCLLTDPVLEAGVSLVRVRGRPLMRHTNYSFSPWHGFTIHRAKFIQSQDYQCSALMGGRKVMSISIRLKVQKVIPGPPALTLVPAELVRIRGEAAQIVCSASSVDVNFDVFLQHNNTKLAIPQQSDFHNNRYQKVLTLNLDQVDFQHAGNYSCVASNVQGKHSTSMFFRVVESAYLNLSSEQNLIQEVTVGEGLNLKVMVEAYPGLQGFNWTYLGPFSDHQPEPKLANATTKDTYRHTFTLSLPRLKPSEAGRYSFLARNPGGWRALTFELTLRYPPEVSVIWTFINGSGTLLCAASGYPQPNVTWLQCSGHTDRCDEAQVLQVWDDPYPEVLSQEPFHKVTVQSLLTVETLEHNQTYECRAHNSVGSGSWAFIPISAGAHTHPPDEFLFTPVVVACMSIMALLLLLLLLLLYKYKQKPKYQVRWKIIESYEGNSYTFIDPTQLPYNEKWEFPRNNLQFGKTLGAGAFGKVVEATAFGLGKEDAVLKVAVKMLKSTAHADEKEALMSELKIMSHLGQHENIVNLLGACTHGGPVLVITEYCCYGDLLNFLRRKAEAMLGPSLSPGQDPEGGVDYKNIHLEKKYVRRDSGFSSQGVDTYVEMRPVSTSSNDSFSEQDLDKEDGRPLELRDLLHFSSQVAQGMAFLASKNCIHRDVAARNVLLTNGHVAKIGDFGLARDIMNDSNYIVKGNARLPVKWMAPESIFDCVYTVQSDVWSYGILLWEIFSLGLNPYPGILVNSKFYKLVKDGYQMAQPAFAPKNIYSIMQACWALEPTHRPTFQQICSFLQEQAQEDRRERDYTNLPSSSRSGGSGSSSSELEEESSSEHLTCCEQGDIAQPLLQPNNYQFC

In the case of `OCCC#Cc1cnc2[nH]c(-c3ccc(N4CCC(O)CC4)cc3)c(CN3CCOCC3)c2c1` [Example 5, 1-(4-(5-(4-hydroxybut-1-yn-1-yl)-3-(morpholinomethyl)-1H-pyrrolo[2,3-b]pyridin-2-yl)phenyl)piperidin-4-ol], on CSF-1R (Fms, active), the IC50 was below 10 nM and the “inhibitory activities against CSF-1R (in words)” value (shortened to “inhibitory activities”) is reported as “potent inhibitory activities”.
On to `COc1ccc(-c2[nH]c3ncc(C#CCCO)cc3c2CC2CCOCC2)cn1` [Example 9, 4-(2-(6-methoxypyridin-3-yl)-3-((tetrahydro-2H-pyran-4-yl)methyl)-1H-pyrrolo[2,3-b]pyridin-5-yl)but-3-yn-1-ol], for which, at CSF-1R (Fms, active), the IC50 is below 10 nM and the “inhibitory activities” value is on record as “potent inhibitory activities”.
For `COc1cc(-c2[nH]c3ncc(C#CCCO)cc3c2CN2C3CCC2COC3)ccc1OC1COC1` [Example 6, 4-(3-((3-oxa-8-azabicyclo[3.2.1]octan-8-yl)methyl)-2-(3-methoxy-4-(oxetan-3-yloxy)phenyl)-1H-pyrrolo[2,3-b]pyridin-5-yl)but-3-yn-1-ol] the same measures were 10 to 30 nM and “potent inhibitory activities”.
Consider `CC(=O)N1CC=C(c2[nH]c3ncc(C#CCCO)cc3c2CC2CCOCC2)CC1` [Example 8, 1-(4-(5-(4-hydroxybut-1-yn-1-yl)-3-((tetrahydro-2H-pyran-4-yl)methyl)-1H-pyrrolo[2,3-b]pyridin-2-yl)-3,6-dihydropyridin-1(2H)-yl)ethan-1-one], for which, on CSF-1R (Fms, active), the concentration for half-maximal inhibition (IC50) is below 10 nM and the “inhibitory activities” value is “potent inhibitory activities”.
With `CC(=O)N1CC=C(c2[nH]c3ncc(C#CCCO)cc3c2CC(C)C)CC1` [Example 7, 1-(4-(5-(4-hydroxybut-1-yn-1-yl)-3-isobutyl-1H-pyrrolo[2,3-b]pyridin-2-yl)-3,6-dihydropyridin-1(2H)-yl)ethan-1-one], on CSF-1R (Fms, active), the IC50 is below 10 nM and the “inhibitory activities” value is on record as “potent inhibitory activities”.
On to `COc1ccc(-c2[nH]c3ncc(C#CCCO)cc3c2CN2C3CCC2COC3)cc1` [Example 2, 4-(3-((3-oxa-8-azabicyclo[3.2.1]octan-8-yl)methyl)-2-(4-methoxyphenyl)-1H-pyrrolo[2,3-b]pyridin-5-yl)but-3-yn-1-ol], for which, at CSF-1R (Fms, active), the IC50 was in the range of 10 to 30 nM and the “inhibitory activities” value was “potent inhibitory activities”.
As for `OCCC#Cc1cnc2[nH]c(-c3ccc(N4CCOCC4)cc3)c(CN3CCOCC3)c2c1` [Example 4, 4-(3-(morpholinomethyl)-2-(4-morpholinophenyl)-1H-pyrrolo[2,3-b]pyridin-5-yl)but-3-yn-1-ol], on CSF-1R (Fms, active), the IC50 was below 10 nM and the “inhibitory activities” value was “potent inhibitory activities”.
For `COc1ccc(-c2[nH]c3ncc(C#CCCO)cc3c2CN2CCOCC2)cc1OC` [Example 3, 4-(2-(3,4-dimethoxyphenyl)-3-(morpholinomethyl)-1H-pyrrolo[2,3-b]pyridin-5-yl)but-3-yn-1-ol], on CSF-1R (Fms, active), the IC50 lay in the range of 10 to 30 nM and the “inhibitory activities” value is “potent inhibitory activities”.
In the case of `COc1ccc(-c2[nH]c3ncc(C#CCCO)cc3c2CN2CCOCC2)cc1` [Example 1, 4-(2-(4-methoxyphenyl)-3-(morpholinomethyl)-1H-pyrrolo[2,3-b]pyridin-5-yl)but-3-yn-1-ol], on CSF-1R (Fms, active), the IC50 is 30 to 100 nM and the “inhibitory activities” value is “potent inhibitory activities”. Besides, the “Tumor growth inhibition rate (TGI %)” value in experiment [1] (22 days, last administration day, NCI-H460 nude mouse) is recorded as 61%. Further, the “tumor growth inhibition (in words, FIG. 1)” value in experiment [1] (tumor volume vs Control group, Student's t test) was “significant tumor growth inhibition”.
